{"source": "patent US20190053489A1", "about": "“ANTIMICROBIAL COMPOSITION” (NATIONAL UNIVERSITY CORPORATION TOKYO MEDICAL AND DENTAL …, priority 2016, published 2019)", "key": {"MRSA IID 1677": {"test_system": "MRSA IID 1677", "test": "Proliferation suppression against MRSA in a diluted medium (OD600)", "assay_type": "cell-based, Methicillin-Resistant Staphylococcus Aureus (MRSA)", "conditions": "diluted 1/2.5 LB medium, 37° C., OD 600 nm; complex 0.001%, lysozyme, chitosan and each of mixture 0.0005%; FIG. 1", "protocol": "This test employed MRSA IID 1677, and this microbe strain was cultured in a normal broth medium at 37° C. for 20 hours. The cultured microbial solution was collected by centrifugation (3000 rpm, 10 minutes), suspended with sterilized water, and then diluted with sterilized water so that the optical density would satisfy OD600=1.0. The resultant was diluted 2000 times (corresponding to 10^6 CFU/ml) to prepare a reaction microbial solution.\nEach of the LB test medium samples was added with 100 μl of reaction microbial solution and was shake cultured under the condition of 37° C. for 48 hours. Here, the LB test medium samples were prepared using 10 ml of 1/2.5 LB medium added with\n(1) 10 ml of sterilized water, (2) 10 ml of the lysozyme-chitosan complex with a concentration of 0.002% (the concentration after addition was 0.001%), (3) 10 ml of lysozyme alone with a concentration of 0.001% (the concentration after addition was 0.0005%), (4) 10 ml of chitosan alone with a concentration of 0.001% (the concentration after addition was 0.0005%), and (5) 10 ml of the mixture of lysozyme and chitosan with a concentration of 0.001% (the concentration of each after addition was 0.0005%).\n(§1) After that, 3 ml was extracted at time intervals (0, 1, and 2 days), and the optical density was measured at an absorption wavelength of 600 nm. […]"}, "[1]": {"test_system": "Pseudomonas aeruginosa NBRC 13275", "test": "Proliferation suppression against pseudomonas aeruginosa in a diluted medium (OD600)", "assay_type": "cell-based", "conditions": "diluted 1/2.5 TSB medium with phosphate buffer pH 7.0; complex 0.01%; FIG. 2", "protocol": "This test employed Pseudomonas aeruginosa NBRC 13275, and this microbe strain was cultured in a normal broth medium at 37° C. for 20 hours. The cultured microbial solution was collected by centrifugation (3000 rpm, 10 minutes), suspended with sterilized water, and then diluted with sterilized water so that the optical density would satisfy OD600=1.0. The resultant was diluted 2000 times (corresponding to 10^6 CFU/ml) to prepare a reaction microbial solution.\nEach of the TSB test medium samples was added with 100 μl of reaction microbial solution and was shake cultured under the condition of 37° C. for 48 hours. Here, the TSB test medium samples were prepared using 10 ml of 1/2.5 TSB medium added with 200 μl of 1 M phosphate buffer (pH 7.0), followed by further addition of […]\nas §1"}, "[2]": {"test_system": "Pseudomonas aeruginosa NBRC 13275", "test": "Proliferation suppression against pseudomonas aeruginosa NBRC 13275 in a standard medium (colony count method)", "assay_type": "cell-based", "conditions": "standard TSB medium; for ratio of the number of pseudomonas aeruginosa (NBRC 13275) colonies produced to the control: 6 hours later, FIG. 11", "description": "This test employed Pseudomonas aeruginosa NBRC 13275 or PAO 1, and other procedures were the same as those of [Example 5] described earlier.\nNote that the results of FIG. 9 are each the average value of the values obtained by carrying out the colony count method three times and that the results of FIG. 10 are each the average value of the values obtained by carrying out the colony count method five times.\nNote that the results of FIG. 11 are each the average value obtained with three replicate samples."}, "pseudomonas aeruginosa": {"test_system": "pseudomonas aeruginosa", "test": "Observation of morphological change in pseudomonas aeruginosa by electron microscope", "assay_type": "cell-based", "protocol": "Next, the morphological change in MRSA was observed by using a transmission electron microscope. This observation with a transmission electron microscope was carried out as follows: the sample was sliced in 50 nm with a diamond knife as the pretreatment and was stained with uranium acetate and lead citrate, and a transmission electron microscope (JEM-1400 manufactured by JEOL Ltd.) was used. In addition, the samples were MRSA added with physiological saline and MRSA added with a lysozyme-chitosan complex with a concentration of 0.2% by mass.\nNote that the morphological change in the case of adding the lysozyme-chitosan complex to pseudomonas aeruginosa was also observed using a transmission electron microscope in the same manner as above. […] In other words, the lysozyme-chitosan complex also has a resistant microbe inactivation effect for pseudomonas aeruginosa.\nObservation was carried out with a scanning electron microscope for the morphological changes in MRSA and pseudomonas aeruginosa treated with the lysozyme-chitosan complex, lysozyme alone, chitosan alone, and the mixture of lysozyme and chitosan (treatment time: 2 hours). This observation with a scanning electron microscope was carried out in the same manner as Example 8 described above: osmium coating (4 nm) was performed as the conductive treatment, and a low-acceleration ultra-high resolution scanning electron microscope (SU 9000 manufactured by Hitachi High-Technologies Corporation (accelerating voltage: 1 kV)) was used. In addition, the samples were MRSA or pseudomonas aeruginosa added with physiological saline, a lysozyme-chitosan complex with a concentration of 0.1% by mass, lysozyme of 0.05% by mass, chitosan of 0.05% by mass, and a mixture of lysozyme and chitosan, each with 0.05% by mass."}}}
{"substance": "lysozyme-chitosan complex: complex of lysozyme and water-soluble chitosan (molecular weight 14000 Da) bound to each other through the Maillard reaction", "values": [{"measurement": "proliferation suppression effect against MRSA for 48 hours", "setting": "MRSA IID 1677", "result": "marked improvement effect compared to lysozyme alone and the mixture of lysozyme and chitosan"}, {"measurement": "proliferation suppression effect against pseudomonas aeruginosa past 24 hours", "setting": "[1]", "result": "strong proliferation suppression effect"}, {"measurement": "proliferation suppression effect against NBRC 13275", "setting": "[2]; colony count 6 hours later, complex 0.2%, others 0.1%, FIG. 9", "result": "marked improvement effect compared to lysozyme alone, chitosan alone, and the mixture of lysozyme and chitosan"}, {"measurement": "ratio of the number of pseudomonas aeruginosa (NBRC 13275) colonies produced to the control", "setting": "[2]; complex 0.2%", "result": "~0", "unit": "%"}, {"measurement": "ratio of the number of pseudomonas aeruginosa (NBRC 13275) colonies produced to the control", "setting": "[2]; complex 0.5%", "result": "~0", "unit": "%"}, {"measurement": "morphological change in pseudomonas aeruginosa, transmission electron microscope", "setting": "pseudomonas aeruginosa; FIG. 15", "result": "destroys the cell walls of pseudomonas aeruginosa"}, {"measurement": "morphological change in pseudomonas aeruginosa, scanning electron microscope, treatment time 2 hours", "setting": "pseudomonas aeruginosa; complex 0.1% by mass, lysozyme 0.05%, chitosan 0.05%, mixture each 0.05%, FIG. 17", "result": "changed to a large extent"}]}
